Reference: patent US11541029B2, “High penetration compositions and their applications” (Techfields Pharma Co., Ltd., priority 2008, dated 2023)
In brackets after ≈: the same amount, converted by molar mass. Counter-ions that a name gives are not always drawn. Like-named read-outs stand apart in the source and are kept apart here. Non-standard residues stand in square brackets, D forms with d. *: point of attachment. Arg(NO2) = N=C(NCCC[C@H](N)C(=O)O)N[N+](=O)[O-]; OCH2CH2CH2CH3 = CCCCO*

Experiments:
eyelashes and hairs [1] = test: Stimulation of hair growth and eyelash growth by HPCs of prostaglandins; format: in vivo; conditions: about 0.2 ml of 1% in pure water near the eyelashes, more than 1 month
Description: (§1) About 0.2 ml of 1% of HPC of N,N-diethylaminoethyl 11,15-dihydroxy-9-oxoprost-13-en-1-oate.HBr (the HPC of prostaglandin E1), N,N-diethylaminoethyl (Z)-7-{[(1R,2R,3R,5S)-3,5-Dihydroxy-2-[1E,3S]-3-hydroxy-5-phenyl-1-pentenyl]cyclopentyl}-5-N-ethylheptenoate.HBr(the HPC of bimatoprost), (13,14-dihydro-17-phenyl-18,19,20-trinor PGF2αN,N-diethylaminoethyl ester, N,N-diethylaminoethyl (Z)-7-[(1R,2R,3R,5S)-3,5-dihydroxy-2-[(1E,3R)-3-hydroxy-4-[(α,α,α-trifluoro-m-tolyl)oxy]-1-butenyl]cyclopentyl]-5-heptenoate.HBr, or 13,14-dihydro-15-keto-20-ethyl PGF2αN,N-diethylaminoethyl ester in pure water is applied to the skin area close to the eyelashes (0.1 ml solution for each eye).
as §1, with “1” for “0.2”, “(frontal and parietal areas) on” for “area close to”, “head skull.” for “eyelashes (0.1 ml solution for each eye).”

eyelashes and hairs [2] = test: as above; format: in vivo; conditions: about 1 ml of 1% in pure water on head skin, more than 1 month
[3] = system: Human colon cancer cells (LS174J); test: Human colon cancer xenograft in nude mice
Description: Human colon cancer cells (LS174J, 2-3 mm^3 of tumor tissue was used in each mouse) were subcutaneously xenografted into nude mice (BALB).

[4] = system: Human breast cancer cells (BCAP-37); test: Human breast cancer xenograft in nude mice
Description: Human breast cancer cells (BCAP-37, 2-3 mm^3 of tumor tissue was used in each mouse) were subcutaneously xenografted into nude mice (BALB, 12 groups, 7 mice each group). […] 50 μl of 5% (equal to 2.5 mg of the HPCs) diethylaminoethyl acetylsalicylate.HCl (P-1, in pure water); 1-piperidinepropyl 2[(2,6-dichlorophenyl)amino]benzene acetate.HCl (P-2, in water), 1-pyrrolidinepropyl 2-(3-benzoylphenyl) propionate.HCl (P-3, in water), 4-piperidinemethyl 2-(3-phenoxyphenyl)propionate.HCl (P-4, in water), 3-piperidinemethyl 2-(ρ-isobutylphenyl) propionate.HCl (P-5, in water), diethylaminoethyl 1-(p-chlorobenzoyl)-5-methoxy-2-methylindole 3-acetate.HCl (P-11, in water), 2-(4-morpholinyl)ethyl (Z)-5-fluoro-2-methyl-1-[(4-methylsulfinyl)phenylmethylene]-1H-indene-3-acetate.

[5] = system: lesions similar to psoriasis generated by Malassezia; test: Anti-psoriasis activity, Malassezia-induced lesions; format: in vivo, Chinese white rabbits; conditions: HPC 5% aq. applied to the lesion areas twice per day
Description: Heavy suspensions of Malassezia [Rosenberg, E. W., et al., Mycopathologia, 72, 147-154 (1980)] were applied to the shaved skin on the backs of Chinese white rabbits (n=4×6) twice (at […]) per day for 2 weeks to generate lesions similar to psoriasis. HPCs (5%, aq.) were applied to the same areas 3 hours (10 am and 6 pm) after the application of Malassezia (7 am and 3 pm). […] HCl, diethylaminoethyl 1,8-diethyl-1,3,4,9-tetrahydropyrano-[3,4-b]indole-1-acetate.HCl, diethylaminoethyl 2-amino-3-(4-bromo-benzoyl)benzeneacetate.HCl, diethylaminoethyl 3-chloro-4-(2-propenyloxy)benzeneacetate. HCl, diethylaminoethyl 1-(4-chlorobenzoyl-5-methoxy-2-methyl-1H-indole-3-acetoxyacetate. HCl, diethylaminoethyl 4-(4-chlorophenyl)-2-phenyl-5-thiazoleacetate.HCl, and diethylaminoethyl 3-(4-chlorophenyl)-1-phenyl-1H-pyrazole-4-acetate.HCl

Hypertension patients = test: Anti-hypertensive effect of transdermal atenolol HCl salt in patients; format: in vivo, human
Description: 20 Hypertension patents were divided to 2 groups. Group A was control group (n=10, 1 ml of water was administrated to the chest of patients once per day) and group B was atenolol treated group (n=10, 100 mg of atenolol HCl salt was administrated to the chest of patients once per day).

[6] = system: methicillin-resistant Staphylococcus aureus (MRSA); test: Minimum inhibitory concentrations (MICs); format: cell-based
Description: Minimum inhibitory concentrations (MICs) of the antimicrobials and their HPCs were assessed according to Jennifer M. Andrews, Journal of Antimicrobial Chemotherapy 48, suppl. S1, 5-16 (2001). […] The test compounds are: 6-phenoxyacetacetamidopenicillanic acid 1-piperidineethyl ester hydrochloride (penicillin V-PEE), penicillin V, 6-(2,6-dimethoxybenzamido)penicillinic acid 2-pyrrolidinemethyl ester hydrochloride (methicillin-PME), methicillin, 7-[[(2-acetylamino-4-thiazolyl)(methoxyimino)acetyl]amino]-8-oxo-5-thia-1-azabicyclo[4.2.0]oct-2-ene-2-carboxylic acid 2-diethylaminoethyl ester hydrochloride (ceftizoxime-DEE), and ceftizoxime).

[7] = system: carrageenin-induced swelling of rat hind paw; test: Anti-inflammatory activity, carrageenin paw swelling; format: in vivo, rats
[8] = system: MPTP-induced Parkinson's disease mice; test: Anti-Parkinson's disease activity in MPTP-induced mice; conditions: mouse, in vivo
Description: Group A mice were ip injected 0.4% sodium carboxymethylcellulos (15 ml/kg per day) for 7 days. Group B and C mice were ip injected N-methyl-4-phenyl-1,2,3,6-tetrahydropyridine (MPTP, 30 mg/kg per day) for 7 days. The mice were divided into 2 groups. […] All mice were killed after the last treatment and the brain tissues were quickly freezed at −80° C. […] The contents of malondialdehyde (MDA) in the SN were measured with the thiobarbituric acid-reaction to indicate the LPO, and contents of glutathione (GSH) in the substantia nigra (SN) were based on the dithionitrobenzonic acid (DTNB) determination. The contents of GABA and Glu in the striatum and SN were shown by high performance amino acid auto-analyser.

[9] = system: Female Sprague Dawley (SD) rats; test: Anti-obesity in Sprague Dawley rats; format: in vivo
Description: 20 Female Sprague Dawley (SD) rats (20 weeks old, 320-345 g) were divided into 2 groups. In group A, 0.2 ml of water was administered to the back of rat (n=10) twice per day for 30 days. In Group B, 10 mg/kg of H-Val-Pro-Gly-Pro-Arg(NO2)—OCH2CH2CH2CH3.HCl in 0.2 ml of water was administered transdermally to the backs of rats (n=10) twice per day for 30 days.

[10] = system: obese DB/DB mice (SLAC/DB/DB); test: Anti-obesity in obese mice (SLAC/DB/DB); format: in vivo
Description: 20 obese DB/DB mice (SLAC/DB/DB) mice (16 weeks old, 55-60 g) were divided into 2 groups. In group A, 0.1 ml of water was administered to the back of mouse (n=10) twice per day for 30 days. In Group B, 15 mg/kg of H-Val-Pro-Gly-Pro-Arg(NO2)—OCH2CH2CH2CH3.HCl in 0.2 ml of water was administered transdermally to the backs of rats (n=10) twice per day for 30 days.

[11] = 100 mg to the chest once per day, n=10
[12] = 10 mg/kg transdermally twice per day for 30 days
[13] = 15 mg/kg transdermally twice per day for 30 days

CCCCCCCC(=O)CC[C@@H]1[C@@H](C/C=C\CCCC(=O)OCCN(CC)CC)[C@@H](O)C[C@H]1O [13,14-dihydro-15-keto-20-ethyl PGF2αN,N-diethylaminoethyl ester]
eyelash growth (eyelashes and hairs [1]): grow longer and fuller | hair growth (eyelashes and hairs [2]): grow longer and fuller

CCN(CC)CCOC(=O)CCC/C=C\C[C@@H]1[C@@H](CC[C@@H](O)CCc2ccccc2)[C@H](O)C[C@@H]1O [(13,14-dihydro-17-phenyl-18,19,20-trinor PGF2αN,N-diethylaminoethyl ester]
eyelash growth (eyelashes and hairs [1]): grow longer and fuller | hair growth (eyelashes and hairs [2]): grow longer and fuller

Br.CCN(CC)CCOC(=O)CCC/C=C\C[C@@H]1[C@@H](/C=C/[C@@H](O)CCc2ccccc2)[C@H](O)C[C@@H]1O [HPC of bimatoprost, N,N-diethylaminoethyl (Z)-7-{[(1R,2R,3R,5S)-3,5-Dihydroxy-2-[1E,3S]-3-hydroxy-5-phenyl-1-pentenyl]cyclopentyl}-5-N-ethylheptenoate.HBr]
eyelash growth (eyelashes and hairs [1]): grow longer and fuller | hair growth (eyelashes and hairs [2]): grow longer and fuller

Br.CCCCCC(O)C=C[C@H]1C(O)CC(=O)[C@@H]1CCCCCCC(=O)OCCN(CC)CC (stereo partly shown) [HPC of prostaglandin E1, N,N-diethylaminoethyl 11,15-dihydroxy-9-oxoprost-13-en-1-oate.HBr]
eyelash growth (eyelashes and hairs [1]): grow longer and fuller | hair growth (eyelashes and hairs [2]): grow longer and fuller

Br.CCN(CC)CCOC(=O)CCC/C=C\C[C@@H]1[C@@H](/C=C/[C@@H](O)COc2cccc(C(F)(F)F)c2)[C@H](O)C[C@@H]1O [N,N-diethylaminoethyl (Z)-7-[(1R,2R,3R,5S)-3,5-dihydroxy-2-[(1E,3R)-3-hydroxy-4-[(α,α,α-trifluoro-m-tolyl)oxy]-1-butenyl]cyclopentyl]-5-heptenoate.HBr]
eyelash growth (eyelashes and hairs [1]): grow longer and fuller | hair growth (eyelashes and hairs [2]): grow longer and fuller

CC(C)Cc1ccc(C(C)C(=O)OCC2CCCNC2)cc1.Cl (stereo not shown) [P-5, 3-piperidinemethyl 2-(ρ-isobutylphenyl) propionate.HCl]
tumor Size at day 30 ([3]; about 50 μl of 5% topically every 12 hours): 520 ± 140 mm^3 | Weight of mice at day 30 ([3]; in vivo): 23 ± 2 | tumor Size at day 42 ([4]; 50 μl of 5% topically every 8 hours): 180 ± 55 mm^3 | Weight of mice at day 42 ([4]; in vivo): 23 ± 2 | time until lesions healed after the application [5]: 10 days

CC(C)NCC(O)COc1ccc(CC(N)=O)cc1 (stereo not shown) [atenolol HPC, atenolol HCl salt]
side effect (Hypertension patients; 100 mg in 1 ml of pure water per day transdermally): without side effect of hypotention | Blood Pressure (before treatment), first figure of the pair (Hypertension patients; [11]): 160 ± 22 mmHg | Blood Pressure (before treatment), second figure of the pair (Hypertension patients; [11]): 110 ± 20 mmHg | Blood pressure (2 weeks after treatment), first figure of the pair (Hypertension patients; [11]): 128 ± 15 mmHg | Blood pressure (2 weeks after treatment), second figure of the pair (Hypertension patients; [11]): 81 ± 12 mmHg

CO/N=C(\C(=O)N[C@@H]1C(=O)N2C(C(=O)O)=CCS[C@H]12)c1csc(N)n1 [ceftizoxime, reference compound]
MIC ([6]; read-out: MIC): 986 µg/mL (≈ 2.57 mM)

CCN(CC)CCOC(=O)C1=CCSC2C(NC(=O)C(=NOC)c3csc(NC(C)=O)n3)C(=O)N12.Cl (stereo not shown) [ceftizoxime-DEE, 7-[[(2-acetylamino-4-thiazolyl)(methoxyimino)acetyl]amino]-8-oxo-5-thia-1-azabicyclo[4.2.0]oct-2-ene-2-carboxylic acid 2-diethylaminoethyl ester hydrochloride]
MIC ([6]; read-out: MIC): 2.5 µg/mL

CCN(CC)CCOC(=O)C(C)c1ccc(CC(C)C)cc1.O=C(O)CC(O)(CC(=O)O)C(=O)O (stereo not shown) [diethylaminoethyl 2-(p-isobutylphenyl)propionate.citric acid]
anti-inflammatory activity (rate of swelling) compared with ibuprofen ([7]; 20 mg/kg (2×10 mg) transdermally): much stronger than that of 100 mg/kg of ibuprofen (oral) | anti-inflammatory activity (rate of swelling) compared with ibuprofen ([7]; 50 mg/kg orally): much stronger than that of 100 mg/kg of ibuprofen (oral)

COc1cccc(OC)c1C(=O)N[C@@H]1C(=O)N2[C@@H]1SC(C)(C)[C@@H]2C(=O)O [methicillin, reference compound]
MIC ([6]; read-out: MIC): 1160 µg/mL (≈ 3.04 mM)

COc1cccc(OC)c1C(=O)NC1C(=O)N2C1SC(C)(C)C2C(=O)OCC1CCCN1.Cl (stereo not shown) [methicillin-PME, 6-(2,6-dimethoxybenzamido)penicillinic acid 2-pyrrolidinemethyl ester hydrochloride]
MIC [6]: 19 µg/mL

NC(=O)C[S+]([O-])C(c1ccccc1)c1ccccc1 (stereo not shown) [modafinil, reference compound]
effect on the increase of nigrostriatal Glu release induced by MPTP [8]: did not change the increase of nigrostriatal Glu release induced by MPTP

CC1(C)S[C@@H]2[C@H](NC(=O)COc3ccccc3)C(=O)N2[C@H]1C(=O)O [penicillin V, reference compound]
MIC [6]: 1824 µg/mL (≈ 5.21 mM)

CC1(C)SC2C(NC(=O)COc3ccccc3)C(=O)N2C1C(=O)OCCN1CCCCC1.Cl (stereo not shown) [penicillin V-PEE, 6-phenoxyacetacetamidopenicillanic acid 1-piperidineethyl ester hydrochloride]
MIC [6]: 12 µg/mL

H-Val-Pro-Gly-Pro-Arg(NO2)—OCH2CH2CH2CH3.HCl (H-VPGP[Arg(NO2)]-OCH2CH2CH2CH3; also: HCl salt)
Food intake (per day & per rat) [9, 12]: 17.5 ± 1.2 | Weight (Day1) [9, 12]: 333.5 ± 4.2 g | Weight (Day 30) [9, 12]: 301.4 ± 3.7 g | control group heavier than the peptide treated group ([9]; rat, in vivo): about 17% | Food intake (per day & per rat) [10, 13]: 3.9 ± 0.3 | Weight (Day1) [10, 13]: 57.1 ± 1.8 g | Weight (Day 30) [10, 13]: 53.4 ± 4.7 g | control group heavier than the peptide treated group ([10]; mouse, in vivo): about 26%
